Measurements from patent US20060019952A1, “Anti-viral therapeutics” (ELIXIR PHARMACEUTICALS, INC., priority 2004, published 2006).

Molecular target: T1, GFP-hSIRT2 isoform 1 (Homo sapiens, UniProt Q8IXJ6)
T1 construct: expressed in transfected cells; host or cells: HeLa
T1 sequence (Q8IXJ6 1-389): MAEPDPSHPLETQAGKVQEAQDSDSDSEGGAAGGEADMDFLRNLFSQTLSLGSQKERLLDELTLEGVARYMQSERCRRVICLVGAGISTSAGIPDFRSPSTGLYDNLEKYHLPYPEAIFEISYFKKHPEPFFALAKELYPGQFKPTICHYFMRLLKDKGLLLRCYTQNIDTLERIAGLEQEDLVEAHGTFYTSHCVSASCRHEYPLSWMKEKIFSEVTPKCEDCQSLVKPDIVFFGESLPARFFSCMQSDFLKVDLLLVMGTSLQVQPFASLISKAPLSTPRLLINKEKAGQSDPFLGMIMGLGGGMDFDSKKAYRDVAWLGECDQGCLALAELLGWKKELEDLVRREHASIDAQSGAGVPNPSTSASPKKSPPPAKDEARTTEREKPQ
Assay: Acetylated tubulin staining in HeLa cells transfected with GFP-hSIRT2 isoform 1
Format: cell-based
Settings: 50 μM compound with 1 μM TSA, added 36 hours post transfection, fixed next morning, versus DMSO
Experimental: HeLa cells were transfected with GFP-hSIRT2 isoform 1. At 36 hours post transfection 1 μM of TSA and either DMSO or 50 μM of Compound 8 was added. The next morning cells were fixed, permeabilized, and stained for acetylated tubulin.

tubulin acetylation in cells expressing SIRT2 (staining for acetylated tubulin): more highly acetylated
SMILES: NC(=O)COC(=O)c1sc2ccccc2c1Cl [Compound 8, 3-Chloro-benzo[b]thiophene-2-carboxylic acid carbamoylmethyl ester]
